Measurements as given in patent US9447037B2, “4-(5-(4-chlorophenyl)-2-(2-cyclopropylacetyl)-1,4-dimethyl-1H-pyrrol-3-yl)benzenesulfonamide as alpha 7 nAChR modulator” (Lupin Limited, priority 2013, dated 2016).

Legend:
Wistar rats = test: Novel Object Recognition Task (subchronic study); type: in vivo, rat; conditions: p.o.; for Minimum effective dose: subchronic 7 days, Wistar rats
Description: Briefly, Wistar rats were acclimatized to the CNS-Laboratory-animal holding room for at least 7 days prior to the randomization, under standard housing conditions. Animals were handled and familiarized with the injection procedures during this period. Two days before the experimentation (acquisition trial, T1), rats were randomized in different treatment-groups based on their body weights namely, vehicle (Tween 80 (1%, v/v), Vitamin E TPGS (Speziol®, 10%, v/v) q.s. 100% v/v in milli-Q water, 2 ml/kg, p.o.), scopolamine (1 mg/kg, i.p.) and test compounds (Compound 1: ranging from 0.005 to 0.05 mg/kg, p.o. and compound A:ranging from 0.05 to 0.5 mg/kg, p.o.)
Vehicle or test compounds (Compounds 1 and A) were administered in a single-dose, subchronically for 7 days, and 1 h before the acquisition trial on day-8 in respective treatment-groups. In order to induce cognitive deficits, scopolamine (1 mg/kg) was injected 25 min before the acquisition trial (T1). Acquisition (T1) and Retention (T2) trials were separated by an intertrial interval of 30 min. In the first trial (acquisition trial, T1), the rats were subjected to arena with two identical objects for a period of 5 min and exploration time towards individual object was measured. In retention trial, one of the identical object was replaced with novel object.
In the time-delay induced amnesia paradigm, vehicle or test compounds (Compounds 1 and A) were administered once-daily for 7 days, and 1 h before the acquisition trial (T1) on day-8 in the respective treatment-groups. After this, a second, retention (T2) trial, was conducted on day-9. A 24 h inter-trial interval served to induce spontaneous decay of memory and resultant amnesia in this paradigm.
In the second trial (retention trial, T2), one of the objects presented in T1 was replaced by a novel object, and the rats were left to explore in the arena for 5 min. The time spent exploring the familiar (F) and the novel object (N) was recorded separately. All the animals underwent habituation session of 10 min duration 24 h prior to acquisition trial to get them acclimatized to the test arena. Both the trials (acquisition and retention) were of 5 min duration. The NOR task was performed in the square-open-field boxes (40 cm long×40 cm wide×40 cm high) made up of non-reflective PVC sheets with black surrounding walls and light gray floor. Colored plastic and glass bottles of different size, shapes and texture, served as object of exploration.
Object exploration was measured as the ‘time spent by the animal’ directing its nose at a distance 2 cm to the object or touching and exploring it. Time spent climbing on the object was not accounted as object exploration. In order to avoid the presence of olfactory trails, the test boxes and objects were always thoroughly cleaned between trials of individual animals.
Mean and standard error of the mean (S.E.M.) was calculated for the exploration time of each identical objects in T1, novel and familiar objects in T2 and discrimination index across the treatment groups. Exploration time within groups was compared with Student's paired t-test. Discrimination index was compared between groups by One-way ANOVA with Dunnett's post hoc test in comparison to the scopolamine-treated group or vehicle-treated group as per the paradigm. Discrimination index was compared between groups by unpaired t-test in comparison to the vehicle-treated group. p<0.05 was considered as significant. All statistical comparisons were performed using GraphPad Prism version 5.00 for Windows, GraphPad Software, San Diego Calif. USA.
The discrimination index (DI) was calculated based on explorations in T2 trial, using the formula.
Discrimination Index equals (time spent investigating novel object−time spent investigating familiar object)/(time spent investigating novel object+time spent investigating familiar object). […] All the experimental recordings were carried out by manual observation of animals by trained scientists. […]

Sprague Dawley rats = test: Social Recognition Task (subchronic study); type: in vivo, rat; conditions: p.o.; for Minimum effective dose: subchronic 7 days, Sprague Dawley rats
Description: Briefly, Sprague Dawley rats were acclimatized to the CNS-Laboratory-animal holding room for at least 7 days prior to the randomization, under standard housing conditions. The animals were handled and familiarized with the injection procedures during this period. Two days before the experimentation (social interaction trial, SIT1), the rats were randomized in different treatment-groups based on their body weights namely, vehicle (Tween 80 (1%, v/v), Vitamin E TPGS (Speziol®, 10%, v/v) q.s. 100% v/v in milli-Q water; 2 ml/kg, p.o.), scopolamine (0.5 mg/kg, i.p.) and test compound (Compound 1:ranging from 0.05 to 0.50 mg/kg, p.o.).
Seven days before experiment, the vehicle or the test compound was administered to the adult rats once-daily and 1 h before the SIT1 on day-8 in respective treatment-groups. Scopolamine or vehicle was administered 20 min prior to the first social interaction (acquisition, SIT1) trial; scopolamine administration served to induced amnesia. After this treatment, the animals were subjected to the first social interaction (acquisition, SIT1) trial, which was followed by a second (retention, SIT2) trial, 30 min later.
In the case of time-delay induced amnesia paradigm, the vehicle or the test compounds (Compound 1) were administered to the adult rats once-daily for 7 days and 1 h before the SIT1 on day-8, in respective treatment-groups. After this treatment, the animals were subjected to a second (retention, SIT2) trial on day-9. The 24 h inter-trial interval served to induce spontaneous decay of memory and resultant amnesia.
Both the trials (acquisition and retention) were of 5 min duration. The social recognition task was performed in the home-cages made up of transparent polycarbonate. Juvenile rats of 3-4 weeks of age served as subjects for exploration to the adult rats. Adult rats were habituated to the home-cage (without juvenile) for 5 min just before SIT1.
Subject exploration (towards juvenile) was measured as the ‘time spent by the adult animal’ exploring the juvenile rat socially viz. sniffing, following, climbing over or going under or aggression. In order to avoid the confounding olfactory trails, the home-cage was individualized for each adult rat. During the second trial (retention trial, SIT2), adult rats were re-exposed to the same juvenile rat previously introduced earlier in the SIT1. The time of exploration in seconds was recorded for both sessions (SIT1 and SIT2).
Mean and standard error of mean (S.E.M) were determined for the exploration time of each social recognition trial (SIT1, SIT2) and recognition index across the treatment-groups. […]
The recognition index (RI) was calculated using the formula: Recognition index equals(time spent investigating juvenile rat in SIT2/time spent investigating juvenile rat in SIT1). […]

[1] = Time-delay induced amnesia (24 h)

CCC(=O)c1c(-c2ccc(S(N)(=O)=O)cc2)c(C)c(-c2ccc(Cl)cc2)n1C [Compound A, 4-(5-(4-chlorophenyl)-1,4-dimethyl-2-propionyl-1H-pyrrol-3-yl)benzenesulfonamide, reference compound]
Minimum effective dose (Wistar rats; Scopolamine induced amnesia): >0.5 mg/kg | Minimum effective dose (Wistar rats; [1]): 0.15 mg/kg

Cc1c(-c2ccc(S(N)(=O)=O)cc2)c(C(=O)CC2CC2)n(C)c1-c1ccc(Cl)cc1 [Compound 1, 4-(5-(4-chlorophenyl)-2-(2-cyclopropylacetyl)-1,4-dimethyl-1H-pyrrol-3-yl)benzenesulfonamide]
discrimination index as compared to vehicle-treated group (Wistar rats; 24 h time delay-induced amnesia, subchronic (7 day) 0.05 mg/Kg, FIG. 1A): significantly increased | Minimum effective dose (Wistar rats; Scopolamine induced amnesia): 0.015 mg/kg | discrimination index as compared to scopolamine treated group (Wistar rats; Scopolamine-induced amnesia, subchronic (7 day) 0.05 mg/Kg, FIG. 1B): significantly increased | Minimum effective dose (Wistar rats; [1]): 0.015 mg/kg | recognition index (RI) as compared to vehicle-treated group (Sprague Dawley rats; 24 h time delay-induced amnesia, subchronic (7 day) 0.05 mg/Kg, FIG. 2A): significantly decreased | Minimum effective dose (Sprague Dawley rats; Scopolamine induced amnesia): 0.015 mg/kg | recognition index (RI) as compared to scopolamine treated group (Sprague Dawley rats; Scopolamine-induced amnesia, subchronic (7 day) 0.05 mg/Kg, FIG. 2B): significantly decreased | Minimum effective dose (Sprague Dawley rats; [1]): 0.05 mg/kg
